According to PubChem BioAssay (NCI):
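48-hour exposure; five concentrations; linearly interpolated endpoints. At the GI50, growth is halved. The concentration for full growth arrest is given as TGI.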

Assays:
Assay in all cases: NCI anticancer screen, dose series, 48 h
786-0 renal = test system: 786-0 renal
A498 renal = test system: A498 renal
A549 NSCLC = test system: A549 NSCLC
ACHN renal = test system: ACHN renal
BT-549 breast = test system: BT-549 breast
CAKI-1 renal = test system: CAKI-1 renal
CCRF-CEM leukemia = test system: CCRF-CEM leukemia
DU-145 prostate = test system: DU-145 prostate
EKVX NSCLC = test system: EKVX NSCLC
HCT-116 colon = test system: HCT-116 colon
HCT-15 colon = test system: HCT-15 colon
HL-60(TB) leukemia = test system: HL-60(TB) leukemia
HOP-62 NSCLC = test system: HOP-62 NSCLC
HOP-92 NSCLC = test system: HOP-92 NSCLC
HS 578T breast = test system: HS 578T breast
HT29 colon = test system: HT29 colon
IGROV1 ovarian = test system: IGROV1 ovarian
K-562 leukemia = test system: K-562 leukemia
KM12 colon = test system: KM12 colon
LOX IMVI melanoma = test system: LOX IMVI melanoma
M14 melanoma = test system: M14 melanoma
MALME-3M melanoma = test system: MALME-3M melanoma
MCF7 breast = test system: MCF7 breast
MDA-MB-231 breast = test system: MDA-MB-231 breast
MDA-MB-435 = test system: MDA-MB-435
MOLT-4 leukemia = test system: MOLT-4 leukemia
NCI-H226 lung = test system: NCI-H226 lung
NCI-H23 lung = test system: NCI-H23 lung
NCI-H460 lung = test system: NCI-H460 lung
NCI-H522 lung = test system: NCI-H522 lung
NCI/ADR-RES ovarian = test system: NCI/ADR-RES ovarian
OVCAR-3 ovarian = test system: OVCAR-3 ovarian
OVCAR-5 ovarian = test system: OVCAR-5 ovarian
OVCAR-8 ovarian = test system: OVCAR-8 ovarian
PC-3 prostate = test system: PC-3 prostate
RPMI-8226 leukemia = test system: RPMI-8226 leukemia
RXF 393 renal = test system: RXF 393 renal
SF-268 CNS = test system: SF-268 CNS
SF-295 CNS = test system: SF-295 CNS
SF-539 CNS = test system: SF-539 CNS
SK-MEL-2 melanoma = test system: SK-MEL-2 melanoma
SK-MEL-28 melanoma = test system: SK-MEL-28 melanoma
SK-MEL-5 melanoma = test system: SK-MEL-5 melanoma
SK-OV-3 ovarian = test system: SK-OV-3 ovarian
SN12C renal = test system: SN12C renal
SNB-19 CNS = test system: SNB-19 CNS
SNB-75 CNS = test system: SNB-75 CNS
SR leukemia = test system: SR leukemia
TK-10 renal = test system: TK-10 renal
U251 CNS = test system: U251 CNS
UACC-257 melanoma = test system: UACC-257 melanoma
UACC-62 melanoma = test system: UACC-62 melanoma
UO-31 renal = test system: UO-31 renal

## Cc1sc2c(c1C)C(c1ccc(Cl)cc1)=N[C@@H](CC(=O)NCCCCCNC(=O)COc1ccc(C3CCC(=O)NC3=O)cc1)c1nnc(C)n1-2 (some centres undefined)
786-0 renal
  GI50: 2080 nM
  TGI: > 100000 nM
A498 renal
  GI50: 6270 nM
  TGI: > 100000 nM
A549 NSCLC
  GI50: 3960 nM
  TGI: > 100000 nM
ACHN renal
  GI50: 20700 nM
  TGI: > 100000 nM
BT-549 breast
  GI50: 54.7 nM
  TGI: 541 nM
CAKI-1 renal
  GI50: 845 nM
  TGI: > 100000 nM
CCRF-CEM leukemia
  GI50: 51.9 nM
  TGI: > 100000 nM
DU-145 prostate
  GI50: > 100000 nM
  TGI: > 100000 nM
EKVX NSCLC
  GI50: 2500 nM
  TGI: > 100000 nM
HCT-116 colon
  GI50: 1690 nM
  TGI: > 100000 nM
HCT-15 colon
  GI50: 3770 nM
  TGI: > 89500 nM
HL-60(TB) leukemia
  TGI: 99.5 nM
HOP-62 NSCLC
  GI50: 644 nM
  TGI: > 100000 nM
HOP-92 NSCLC
  GI50: 61.9 nM
HS 578T breast
  GI50: 154 nM
  TGI: > 100000 nM
HT29 colon
  GI50: 950 nM
  TGI: > 100000 nM
IGROV1 ovarian
  GI50: 269 nM
  TGI: > 100000 nM
K-562 leukemia
  GI50: 565 nM
  TGI: > 100000 nM
KM12 colon
  GI50: 483 nM
  TGI: > 100000 nM
LOX IMVI melanoma
  GI50: 1480 nM
  TGI: > 42900 nM
M14 melanoma
  GI50: 1010 nM
  TGI: > 100000 nM
MALME-3M melanoma
  GI50: 788 nM
  TGI: > 100000 nM
MCF7 breast
  GI50: 39.7 nM
  TGI: > 100000 nM
MDA-MB-231 breast
  GI50: 90.8 nM
  TGI: > 100000 nM
MDA-MB-435
  GI50: 171 nM
  TGI: > 100000 nM
MOLT-4 leukemia
  GI50: 113 nM
  TGI: > 100000 nM
NCI-H226 lung
  GI50: 476 nM
  TGI: > 100000 nM
NCI-H23 lung
  GI50: 13100 nM
  TGI: > 100000 nM
NCI-H460 lung
  GI50: 47400 nM
  TGI: > 100000 nM
NCI-H522 lung
  GI50: 4370 nM
  TGI: > 100000 nM
NCI/ADR-RES ovarian
  GI50: > 100000 nM
  TGI: > 100000 nM
OVCAR-3 ovarian
  GI50: 2300 nM
  TGI: > 100000 nM
OVCAR-5 ovarian
  GI50: 795 nM
  TGI: > 100000 nM
OVCAR-8 ovarian
  GI50: 298 nM
  TGI: > 100000 nM
PC-3 prostate
  GI50: 134 nM
  TGI: > 100000 nM
RPMI-8226 leukemia
  GI50: 38 nM
  TGI: 1120 nM
RXF 393 renal
  GI50: 2170 nM
  TGI: > 100000 nM
SF-268 CNS
  GI50: 629 nM
  TGI: > 100000 nM
SF-295 CNS
  GI50: 3110 nM
  TGI: > 100000 nM
SF-539 CNS
  GI50: 439 nM
  TGI: > 100000 nM
SK-MEL-2 melanoma
  GI50: 371 nM
  TGI: > 100000 nM
SK-MEL-28 melanoma
  GI50: 901 nM
  TGI: > 100000 nM
SK-MEL-5 melanoma
  GI50: 345 nM
  TGI: 3450 nM
SK-OV-3 ovarian
  GI50: 3310 nM
  TGI: > 100000 nM
SN12C renal
  GI50: 293 nM
  TGI: > 100000 nM
SNB-19 CNS
  GI50: 438 nM
  TGI: > 100000 nM
SNB-75 CNS
  GI50: < 18.9 nM
  TGI: 389 nM
SR leukemia
  GI50: 64.5 nM
  TGI: > 100000 nM
TK-10 renal
  GI50: 1700 nM
  TGI: > 40900 nM
U251 CNS
  GI50: 3090 nM
  TGI: > 100000 nM
UACC-257 melanoma
  GI50: > 26300 nM
  TGI: > 100000 nM
UACC-62 melanoma
  GI50: 429 nM
  TGI: > 100000 nM
UO-31 renal
  GI50: 3200 nM
  TGI: 53900 nM
